In article PMC2668075 (PLoS ONE, 2009):
Peptide text beside a SMILES is read from it. * marks the point of attachment. AMC = Cc1cc(=O)oc2cc(N*)ccc12

Biological target: T1, HcDppIVA (Histoplasma ohiense, UniProt A0ACF1AGW9)
T1 construct: gene DPP4
Settings: pH and temperature series (optimum pH 8, 42 °C); 1 h

In the case of `Cc1cc(=O)oc2cc(NC(=O)[C@@H]3CCCN3C(=O)CN)ccc12` [Gly-pro-AMC] (H-Gly-Pro-{AMC}), the “fluorescent AMC release assay” value is reported as “We measured DppIV activity of the purified preparation towards Gly-pro-AMC”.
